Tests used:
[1] = Inhibition of LSD1-HDAC1-CoREST (unknown origin) using Boc-(Ac)Lys-AMC as substrate incubated for 20 mins by fluorescence-based assay; parameters: species or system Homo sapiens
Histone deacetylase 1 [2] = target: T1, Histone deacetylase 1 (Homo sapiens, UniProt Q13547); experiment: Inhibition of HDAC1 (unknown origin) using Ac-Leu-Gly-Lys(Ac)-AMC as substrate measured every 30 secs for 60 mins by fluorescence-based assay
Histone deacetylase 2 [3] = target: T2, Histone deacetylase 2 (Homo sapiens, UniProt Q92769); experiment: Inhibition of human HDAC2 expressed in Sf9 cells using Ac-Leu-Gly-Lys(Ac)-AMC as substrate measured every 30 secs for 60 mins by fluorescence-based assay
[4] = target: Histone deacetylase 3/Nuclear receptor corepressor 2 (HDAC3/NCoR2) (Homo sapiens, UniProt O15379); experiment: Inhibition of human C-terminal His-tagged HDAC3 (1 to 428 residues)/human N-terminal GST-tagged NcoR2 (395 to 489 residues) expressed in sf9 cells using Ac-Leu-Gly-Lys(Ac)-AMC as substrate measured every 30 secs for 60 mins by fluorescence-based assay
Histone deacetylase 4 [5] = target: T3, Histone deacetylase 4 (Homo sapiens, UniProt P56524); experiment: Binding affinity to human full length N-terminal GST-tagged HDAC4 by surface plasmon resonance analysis
[6] = target: T4, Polyamine deacetylase HDAC10 (Homo sapiens, UniProt Q969S8); experiment: Inhibition of HDAC10 (unknown origin)
T4 sequence (Q969S8 whole entry): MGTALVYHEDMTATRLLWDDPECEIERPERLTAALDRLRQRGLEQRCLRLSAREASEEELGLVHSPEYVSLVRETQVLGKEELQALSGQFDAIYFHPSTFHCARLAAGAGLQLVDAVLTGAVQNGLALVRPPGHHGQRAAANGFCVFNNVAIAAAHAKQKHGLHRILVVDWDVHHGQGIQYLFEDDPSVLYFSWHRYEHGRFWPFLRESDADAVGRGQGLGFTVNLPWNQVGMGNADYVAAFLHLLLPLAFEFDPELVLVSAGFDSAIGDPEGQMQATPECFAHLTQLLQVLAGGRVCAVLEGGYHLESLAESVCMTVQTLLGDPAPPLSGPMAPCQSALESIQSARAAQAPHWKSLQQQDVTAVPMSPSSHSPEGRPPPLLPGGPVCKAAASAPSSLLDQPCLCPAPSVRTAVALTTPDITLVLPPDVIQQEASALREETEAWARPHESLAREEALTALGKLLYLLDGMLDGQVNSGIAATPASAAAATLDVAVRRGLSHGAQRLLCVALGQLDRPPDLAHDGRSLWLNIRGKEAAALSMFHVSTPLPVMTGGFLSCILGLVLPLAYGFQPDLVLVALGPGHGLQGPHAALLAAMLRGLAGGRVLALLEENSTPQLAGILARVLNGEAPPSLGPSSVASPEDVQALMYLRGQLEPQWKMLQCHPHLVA

Histone deacetylase 5 [7] = target: T5, Histone deacetylase 5 (Homo sapiens, UniProt Q9UQL6); experiment: Inhibition of human HDAC5 expressed in baculovirus infected sf9 cells using (Boc-Lys(trifluoroacetyl)-AMC) as substrate by fluorescence-based assay
Histone deacetylase 9 [8] = target: T6, Histone deacetylase 9 (Homo sapiens, UniProt Q9UKV0); experiment: Inhibition of human HDAC9 expressed in baculovirus infected sf9 cells using (Boc-Lys(trifluoroacetyl)-AMC) as substrate by fluorescence-based assay
Histone deacetylase 11 = target: T7, Histone deacetylase 11 (Homo sapiens, UniProt Q96DB2); experiment: Inhibition of human C-terminal Flag-tagged HDAC11 expressed in sf9 cells using Boc-Lys(Ac)-AMC as substrate preincubated for 10 mins followed by substrate addition by fluorometry
T7 sequence (Q96DB2 whole entry): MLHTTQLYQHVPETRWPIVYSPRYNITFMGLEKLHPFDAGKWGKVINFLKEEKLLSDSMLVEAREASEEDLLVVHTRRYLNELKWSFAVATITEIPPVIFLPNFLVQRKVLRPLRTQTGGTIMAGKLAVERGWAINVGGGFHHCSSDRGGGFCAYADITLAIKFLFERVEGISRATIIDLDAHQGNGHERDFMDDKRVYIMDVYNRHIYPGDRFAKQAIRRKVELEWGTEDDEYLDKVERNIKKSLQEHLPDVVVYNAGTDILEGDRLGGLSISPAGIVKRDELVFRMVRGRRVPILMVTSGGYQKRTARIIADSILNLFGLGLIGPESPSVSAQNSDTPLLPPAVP

Histone deacetylase 1 [9] = target: T1, Histone deacetylase 1; experiment: Inhibition of human HDAC1 using Boc-Lys(Ac)-AMC as substrate preincubated for 30 mins followed by substrate addition and measured after 60 mins by […] assay
Histone deacetylase 3 [10] = target: T8, Histone deacetylase 3 (Homo sapiens, UniProt O15379); experiment: Inhibition of human HDAC3 using Boc-Lys(Ac)-AMC as substrate preincubated for 30 mins followed by substrate addition and measured after 60 mins by […] assay
[11] = target: T9, Protein deacetylase HDAC6 (Homo sapiens, UniProt Q9UBN7); experiment: Inhibition of human HDAC6 using Boc-Lys(Ac)-AMC as substrate preincubated for 30 mins followed by substrate addition and measured after 60 mins by […]
T9 sequence (Q9UBN7 whole entry): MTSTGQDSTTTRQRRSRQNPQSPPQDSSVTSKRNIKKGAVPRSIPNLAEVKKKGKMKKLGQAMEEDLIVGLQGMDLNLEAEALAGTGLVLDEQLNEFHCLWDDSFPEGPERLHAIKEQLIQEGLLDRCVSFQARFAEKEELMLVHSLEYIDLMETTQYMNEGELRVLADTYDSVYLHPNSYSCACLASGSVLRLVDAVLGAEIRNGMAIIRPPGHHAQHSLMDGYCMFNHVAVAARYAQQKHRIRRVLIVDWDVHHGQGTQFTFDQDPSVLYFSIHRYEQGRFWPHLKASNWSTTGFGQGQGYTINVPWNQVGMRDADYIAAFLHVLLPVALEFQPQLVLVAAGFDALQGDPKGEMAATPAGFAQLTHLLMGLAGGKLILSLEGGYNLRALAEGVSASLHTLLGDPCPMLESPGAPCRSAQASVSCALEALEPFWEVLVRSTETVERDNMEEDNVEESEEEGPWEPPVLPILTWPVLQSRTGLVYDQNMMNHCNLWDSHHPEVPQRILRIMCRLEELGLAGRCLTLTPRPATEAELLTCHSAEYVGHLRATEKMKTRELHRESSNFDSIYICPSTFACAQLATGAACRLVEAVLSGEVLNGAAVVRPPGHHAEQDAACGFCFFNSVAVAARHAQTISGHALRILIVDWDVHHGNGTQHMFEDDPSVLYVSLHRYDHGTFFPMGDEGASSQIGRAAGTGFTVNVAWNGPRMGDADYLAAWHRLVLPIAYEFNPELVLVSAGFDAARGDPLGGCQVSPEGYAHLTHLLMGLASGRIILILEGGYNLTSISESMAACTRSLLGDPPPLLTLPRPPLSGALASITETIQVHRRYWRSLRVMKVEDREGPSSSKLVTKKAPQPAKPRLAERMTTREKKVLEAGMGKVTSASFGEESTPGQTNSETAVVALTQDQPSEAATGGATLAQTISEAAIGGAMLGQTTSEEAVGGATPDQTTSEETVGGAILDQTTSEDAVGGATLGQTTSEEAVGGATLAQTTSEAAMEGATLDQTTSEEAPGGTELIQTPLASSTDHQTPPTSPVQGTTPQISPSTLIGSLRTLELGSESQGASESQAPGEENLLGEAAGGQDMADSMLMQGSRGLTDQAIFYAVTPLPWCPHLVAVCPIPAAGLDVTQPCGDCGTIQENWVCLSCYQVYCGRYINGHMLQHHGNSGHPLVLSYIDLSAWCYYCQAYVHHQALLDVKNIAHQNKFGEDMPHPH

Histone deacetylase 4 [12] = target: T3, Histone deacetylase 4; experiment: Inhibition of human HDAC4 using Boc-Lys(tri-fluoracetyl)-AMC as substrate preincubated for 30 mins followed by substrate addition and measured after 60 mins by […] assay
Histone deacetylase 4 [13] = target: T3, Histone deacetylase 4; experiment: Inhibition of human HDAC4 expressed in baculovirus infected sf9 cells using Boc-L-Lys-MCA as substrate preincubated for 15 mins followed by substrate addition and measured after 60 mins by fluorescence method
Histone deacetylase 5 [14] = target: T5, Histone deacetylase 5; experiment: Inhibition of human HDAC5 using Boc-L-Lys-MCA as substrate preincubated for 15 mins followed by substrate addition and measured after 60 mins by fluorescence method
[15] = target: T4, Polyamine deacetylase HDAC10; experiment: Inhibition of recombinant human HDAC10 (2 to 631 residues) expressed in baculovirus infected sf9 cells using Fluor-de-lys as substrate preincubated for 15 mins followed by substrate addition and measured after 60 mins by fluorescence method
Histone deacetylase 9 [16] = target: T6, Histone deacetylase 9; experiment: Inhibition of C-terminal His-tagged human HDAC9 (604 to 1066 residues) expressed in baculovirus infected sf9 cells using Boc-L-Lys-MCA as substrate preincubated for 15 mins followed by substrate addition and measured after 60 mins by fluorescence method
[17] = target: T4, Polyamine deacetylase HDAC10; experiment: Inhibition of recombinant human N-terminal FLAG-tagged HDAC10 (2 to 631 residues) expressed in baculovirus infected sf9 cells using p53 (379 to 382 residues) (Arg-His-Lys(Ac)-Lys(Ac)) as substrate by fluorimetric assay
Histone deacetylase 8 = target: T10, Histone deacetylase 8 (Homo sapiens, UniProt Q9BY41); experiment: Inhibition of recombinant human C-terminal His-tagged HDAC8 expressed in baculovirus infected sf9 cells using p53 (379 to 382 residues) (Arg-His-Lys(Ac)-Lys(Ac)) by fluorimetric assay
T10 sequence (Q9BY41 whole entry): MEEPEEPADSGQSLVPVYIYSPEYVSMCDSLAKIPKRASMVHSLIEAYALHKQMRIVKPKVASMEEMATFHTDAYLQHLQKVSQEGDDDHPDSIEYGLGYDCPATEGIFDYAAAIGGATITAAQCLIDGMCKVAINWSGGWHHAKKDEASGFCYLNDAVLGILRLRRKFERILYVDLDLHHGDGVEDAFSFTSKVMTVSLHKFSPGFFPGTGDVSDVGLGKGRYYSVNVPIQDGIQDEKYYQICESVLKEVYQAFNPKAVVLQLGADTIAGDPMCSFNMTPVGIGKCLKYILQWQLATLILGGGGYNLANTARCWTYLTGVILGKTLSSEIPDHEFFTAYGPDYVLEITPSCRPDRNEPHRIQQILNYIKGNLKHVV

Histone deacetylase 2 [18] = target: T2, Histone deacetylase 2; experiment: Inhibition of HDAC2 (unknown origin)
Histone deacetylase 1 [19] = target: T1, Histone deacetylase 1; experiment: Inhibition of HDAC1 (unknown origin)
Histone deacetylase 3 [20] = target: T8, Histone deacetylase 3; experiment: Inhibition of HDAC3 (unknown origin)

T5 sequence (Q9UQL6 whole entry): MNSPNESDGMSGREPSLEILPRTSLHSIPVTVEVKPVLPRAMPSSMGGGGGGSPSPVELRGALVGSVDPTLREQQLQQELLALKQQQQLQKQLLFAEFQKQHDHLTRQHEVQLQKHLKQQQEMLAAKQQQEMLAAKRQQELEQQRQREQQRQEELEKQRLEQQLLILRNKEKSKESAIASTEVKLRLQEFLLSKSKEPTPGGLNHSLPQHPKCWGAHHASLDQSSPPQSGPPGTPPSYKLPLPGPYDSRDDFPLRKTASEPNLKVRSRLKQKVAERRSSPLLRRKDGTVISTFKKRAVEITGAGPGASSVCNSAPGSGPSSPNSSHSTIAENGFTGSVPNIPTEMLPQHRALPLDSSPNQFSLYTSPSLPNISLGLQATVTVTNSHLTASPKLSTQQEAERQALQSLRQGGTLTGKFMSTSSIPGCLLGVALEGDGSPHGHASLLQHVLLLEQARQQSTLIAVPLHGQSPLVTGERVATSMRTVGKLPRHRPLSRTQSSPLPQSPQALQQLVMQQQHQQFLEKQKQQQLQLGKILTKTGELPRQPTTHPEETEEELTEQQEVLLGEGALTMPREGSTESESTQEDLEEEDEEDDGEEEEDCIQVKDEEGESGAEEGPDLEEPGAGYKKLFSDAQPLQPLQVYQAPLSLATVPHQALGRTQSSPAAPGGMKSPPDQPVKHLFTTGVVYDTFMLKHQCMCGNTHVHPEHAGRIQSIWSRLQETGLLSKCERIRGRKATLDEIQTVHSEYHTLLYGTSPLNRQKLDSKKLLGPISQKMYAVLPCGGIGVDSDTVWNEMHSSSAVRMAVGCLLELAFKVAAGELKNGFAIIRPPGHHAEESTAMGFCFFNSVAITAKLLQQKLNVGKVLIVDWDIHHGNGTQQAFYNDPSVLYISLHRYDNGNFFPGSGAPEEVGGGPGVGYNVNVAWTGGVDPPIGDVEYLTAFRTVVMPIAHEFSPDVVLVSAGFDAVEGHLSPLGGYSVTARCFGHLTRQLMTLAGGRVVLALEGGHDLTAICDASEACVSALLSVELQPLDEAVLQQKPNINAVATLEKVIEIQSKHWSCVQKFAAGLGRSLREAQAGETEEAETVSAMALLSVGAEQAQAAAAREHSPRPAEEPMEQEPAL
T3 sequence (P56524 whole entry): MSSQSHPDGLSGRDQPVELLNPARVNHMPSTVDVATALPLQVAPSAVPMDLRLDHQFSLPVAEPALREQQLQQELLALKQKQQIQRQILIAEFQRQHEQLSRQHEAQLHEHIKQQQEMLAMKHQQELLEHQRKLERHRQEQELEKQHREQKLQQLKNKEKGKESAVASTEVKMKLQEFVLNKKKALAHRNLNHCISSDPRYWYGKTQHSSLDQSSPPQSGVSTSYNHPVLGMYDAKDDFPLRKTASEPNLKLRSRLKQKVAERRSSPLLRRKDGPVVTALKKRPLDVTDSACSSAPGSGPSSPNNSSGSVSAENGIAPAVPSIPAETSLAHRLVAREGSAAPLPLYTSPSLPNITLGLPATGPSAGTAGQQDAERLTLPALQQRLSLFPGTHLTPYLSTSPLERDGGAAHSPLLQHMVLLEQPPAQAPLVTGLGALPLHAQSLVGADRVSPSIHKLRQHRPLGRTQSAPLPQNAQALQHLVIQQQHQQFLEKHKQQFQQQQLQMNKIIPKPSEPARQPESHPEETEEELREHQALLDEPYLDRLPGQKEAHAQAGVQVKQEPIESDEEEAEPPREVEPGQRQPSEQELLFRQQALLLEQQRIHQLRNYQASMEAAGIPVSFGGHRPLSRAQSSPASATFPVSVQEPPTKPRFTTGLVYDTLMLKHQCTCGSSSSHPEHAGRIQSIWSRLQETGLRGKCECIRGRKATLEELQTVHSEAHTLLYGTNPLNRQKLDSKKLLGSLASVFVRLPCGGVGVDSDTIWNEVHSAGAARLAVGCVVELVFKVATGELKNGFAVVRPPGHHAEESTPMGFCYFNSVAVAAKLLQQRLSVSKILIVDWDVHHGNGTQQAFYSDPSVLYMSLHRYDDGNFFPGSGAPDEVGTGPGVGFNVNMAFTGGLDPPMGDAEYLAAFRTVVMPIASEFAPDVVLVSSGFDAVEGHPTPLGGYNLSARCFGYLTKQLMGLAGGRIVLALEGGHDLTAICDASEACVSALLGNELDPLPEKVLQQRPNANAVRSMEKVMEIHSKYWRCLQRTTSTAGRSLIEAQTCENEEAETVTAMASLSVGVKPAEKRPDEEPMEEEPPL
T1 sequence (Q13547 whole entry): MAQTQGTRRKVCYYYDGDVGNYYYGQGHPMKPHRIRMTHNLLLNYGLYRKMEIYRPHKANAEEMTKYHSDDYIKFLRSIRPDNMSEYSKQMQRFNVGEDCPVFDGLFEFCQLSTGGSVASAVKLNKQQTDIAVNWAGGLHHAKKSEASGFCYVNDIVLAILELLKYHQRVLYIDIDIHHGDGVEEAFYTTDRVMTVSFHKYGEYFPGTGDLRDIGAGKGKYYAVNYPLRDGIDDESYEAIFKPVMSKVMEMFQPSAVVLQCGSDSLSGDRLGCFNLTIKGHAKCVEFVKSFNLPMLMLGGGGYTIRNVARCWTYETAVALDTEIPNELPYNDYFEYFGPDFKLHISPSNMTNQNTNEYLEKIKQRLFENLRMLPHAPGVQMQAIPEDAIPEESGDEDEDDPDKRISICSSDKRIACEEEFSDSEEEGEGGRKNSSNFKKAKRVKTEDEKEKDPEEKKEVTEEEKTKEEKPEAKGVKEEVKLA
T6 sequence (Q9UKV0 whole entry): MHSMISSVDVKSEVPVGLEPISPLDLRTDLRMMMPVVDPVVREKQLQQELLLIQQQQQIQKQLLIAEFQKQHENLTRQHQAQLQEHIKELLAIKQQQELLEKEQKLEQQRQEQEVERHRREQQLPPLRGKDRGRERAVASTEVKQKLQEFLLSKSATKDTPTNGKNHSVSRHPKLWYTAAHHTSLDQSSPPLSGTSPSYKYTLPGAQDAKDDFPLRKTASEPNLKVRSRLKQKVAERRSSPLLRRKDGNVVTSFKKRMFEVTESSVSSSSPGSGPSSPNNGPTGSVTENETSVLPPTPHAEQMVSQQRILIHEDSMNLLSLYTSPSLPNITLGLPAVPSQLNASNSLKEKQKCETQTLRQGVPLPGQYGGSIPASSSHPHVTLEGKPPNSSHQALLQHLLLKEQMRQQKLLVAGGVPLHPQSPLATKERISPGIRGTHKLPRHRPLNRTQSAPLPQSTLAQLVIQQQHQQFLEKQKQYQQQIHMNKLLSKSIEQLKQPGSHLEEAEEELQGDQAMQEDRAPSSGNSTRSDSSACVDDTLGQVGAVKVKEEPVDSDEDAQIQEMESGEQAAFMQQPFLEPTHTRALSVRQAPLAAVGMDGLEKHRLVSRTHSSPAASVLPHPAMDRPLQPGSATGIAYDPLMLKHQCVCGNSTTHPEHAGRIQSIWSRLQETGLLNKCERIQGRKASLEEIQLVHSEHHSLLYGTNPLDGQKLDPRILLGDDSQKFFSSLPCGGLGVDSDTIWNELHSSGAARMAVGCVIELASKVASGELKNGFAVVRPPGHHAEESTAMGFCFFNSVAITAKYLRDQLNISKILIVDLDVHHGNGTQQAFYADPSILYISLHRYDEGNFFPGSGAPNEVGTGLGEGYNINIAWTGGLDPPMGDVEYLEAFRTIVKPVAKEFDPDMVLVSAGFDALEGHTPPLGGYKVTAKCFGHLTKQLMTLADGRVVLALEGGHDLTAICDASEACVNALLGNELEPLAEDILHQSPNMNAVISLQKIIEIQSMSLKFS
T8 sequence (O15379 whole entry): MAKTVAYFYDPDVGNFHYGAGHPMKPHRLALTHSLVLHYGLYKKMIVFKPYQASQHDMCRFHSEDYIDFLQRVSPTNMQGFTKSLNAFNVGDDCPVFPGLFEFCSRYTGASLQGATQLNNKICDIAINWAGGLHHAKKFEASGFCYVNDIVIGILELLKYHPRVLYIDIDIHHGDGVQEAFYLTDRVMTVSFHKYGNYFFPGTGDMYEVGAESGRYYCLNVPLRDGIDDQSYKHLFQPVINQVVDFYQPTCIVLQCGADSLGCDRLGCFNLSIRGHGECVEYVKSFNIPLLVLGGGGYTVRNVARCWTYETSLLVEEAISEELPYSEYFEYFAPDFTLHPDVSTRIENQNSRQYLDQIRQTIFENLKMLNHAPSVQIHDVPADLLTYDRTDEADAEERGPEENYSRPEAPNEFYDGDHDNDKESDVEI
T2 sequence (Q92769 whole entry, the tested form may be a part): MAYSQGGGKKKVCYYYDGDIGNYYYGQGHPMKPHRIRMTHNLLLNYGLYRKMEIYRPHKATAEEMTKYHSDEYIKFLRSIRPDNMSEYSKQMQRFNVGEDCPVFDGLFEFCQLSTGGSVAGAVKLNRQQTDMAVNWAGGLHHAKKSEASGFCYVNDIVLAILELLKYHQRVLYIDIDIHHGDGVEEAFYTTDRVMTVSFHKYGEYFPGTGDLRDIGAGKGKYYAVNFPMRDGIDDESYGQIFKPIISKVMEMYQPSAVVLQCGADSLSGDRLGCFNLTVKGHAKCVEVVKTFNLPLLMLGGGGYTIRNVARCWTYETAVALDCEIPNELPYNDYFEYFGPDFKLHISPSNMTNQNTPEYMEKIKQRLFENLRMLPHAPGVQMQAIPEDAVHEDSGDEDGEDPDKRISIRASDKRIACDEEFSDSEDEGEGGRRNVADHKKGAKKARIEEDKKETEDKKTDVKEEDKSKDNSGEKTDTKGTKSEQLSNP

Molecule `Cc1ncsc1-c1ccc(CNC(=O)[C@@H]2C[C@@H](O)CN2C(=O)[C@@H](NC(=O)CCCCCCCCCCC(=O)Nc2ccc(C(=O)Nc3cc(-c4ccccc4)ccc3N)cc2)C(C)(C)C)cc1` has an IC50 [1] of 17 µM.
`C/C=C1\NC(=O)[C@@H](C)NC(=O)[C@@H](C(C)C)NC(=O)C[C@@H](CCC)OC(=O)[C@H](C(C)C)NC1=O` gave a Ki (Histone deacetylase 1 [2]) of 690 nM, a Ki (Histone deacetylase 2 [3]) of 370 nM and a Ki [4] of 800 nM.
Molecule `COc1cccc2c1c(O)c(C(=O)N(C)c1ccc(C(F)(F)F)cc1)c(=O)n2C` [TASQUINIMOD] has a Kd (Histone deacetylase 4 [5]) of 10 nM.
Molecule `Cn1cc(CNCC2CCN(c3ncc(C(=O)NO)cn3)CC2)c2ccccc21` [QUISINOSTAT] has an IC50 [6] of 0.5 nM, an IC50 (Histone deacetylase 5 [7]) of 4 nM and an IC50 (Histone deacetylase 9 [8]) of 32 nM.
Work on `Nc1ccccc1NC(=O)c1ccc(CNc2nccc(-c3cccnc3)n2)cc1` [MOCETINOSTAT] yielded an IC50 (Histone deacetylase 11) of 600 nM.
For `N=C1Sc2ccccc2C2=NCCCN12`, the IC50 (Histone deacetylase 1 [9]) was 4 µM, the IC50 (Histone deacetylase 3 [10]) was > 50 µM and the IC50 [11] was 7 µM. The IC50 (Histone deacetylase 4 [12]) was 9 µM.
In the case of `CCN(CC)Cc1ccc2cc(COC(=O)Nc3ccc(C(=O)NO)cc3)ccc2c1` [GIVINOSTAT], the IC50 (Histone deacetylase 4 [13]) is reported as > 1000 nM, the IC50 (Histone deacetylase 5 [14]) is reported as 532 nM and the IC50 [15] is reported as 331 nM. For the same molecule, the IC50 (Histone deacetylase 9 [16]) was 512 nM.
`CCCCNNC(=O)c1ccc(Br)cc1` gave an IC50 [17] of 15 µM and an IC50 (Histone deacetylase 8) of 2000 nM.
`Cc1cn(C)nc1CN1CCC(c2ccc(C(=O)Nc3ccccc3N)cc2)CC1` showed an IC50 (Histone deacetylase 2 [18]) of 600 nM, an IC50 (Histone deacetylase 1 [19]) of 100 nM and an IC50 (Histone deacetylase 3 [20]) of 600 nM.
`CN(C)Cc1c(C(=O)NCCOc2ccc(C(=O)NO)cc2)oc2ccccc12` [ABEXINOSTAT] showed an IC50 (Histone deacetylase 5 [7]) of 48 nM and an IC50 (Histone deacetylase 9 [8]) of 168 nM.

— ChEMBL document CHEMBL4765362, “Thirty Years of HDAC Inhibitors: 2020 Insight and Hindsight” (J Med Chem, 2020)
